# Test results from US7504430B2, “Maleiimide anti-tumor phosphatase inhibitors” (The United States of America as represented by the …, priority 2004, dated 2009).
# Like-named read-outs stand apart in the source and are kept apart here.
# Experiments:
# Hep3B cells = assay: Hep3B cell growth inhibition (Hoechst 33258 DNA fluorescence, 3 days of treatment); format: cell-based, human; conditions: for Potency at Hep3B cell growth inhibition compared with Cpd5: versus Cpd5 (2-(2-mercaptoethanol)-3-methyl-1,4-naphthoquinone); for Inhibition of Hep3B cell growth: even at 10 μM
# Experimental: Hep3B or JM-1 hepatoma cells were grown in tissue culture in MEM medium supplemented with 10% fetal bovine serum. Cells were plated at a density of 1×104. […] Culture medium was replaced every day with new medium containing the inhibitor. After 3 days of treatment, the cells were rinsed once with PBS and frozen at −80° C. until counting. Frozen cells were thawed and incubated with the DNA-staining dye Hoescht 33258. The cell numbers were determined by measuring the dye-bound DNA fluorescence by a fluorescent plate reader.
# (§1) IC50 was determined from the growth inhibition curves.
# MKP1 = target: T1, MKP1 (Homo sapiens, UniProt P28562); assay: Phosphatase inhibition, MKP1; format: biochemical
# T1 sequence (P28562 1-367): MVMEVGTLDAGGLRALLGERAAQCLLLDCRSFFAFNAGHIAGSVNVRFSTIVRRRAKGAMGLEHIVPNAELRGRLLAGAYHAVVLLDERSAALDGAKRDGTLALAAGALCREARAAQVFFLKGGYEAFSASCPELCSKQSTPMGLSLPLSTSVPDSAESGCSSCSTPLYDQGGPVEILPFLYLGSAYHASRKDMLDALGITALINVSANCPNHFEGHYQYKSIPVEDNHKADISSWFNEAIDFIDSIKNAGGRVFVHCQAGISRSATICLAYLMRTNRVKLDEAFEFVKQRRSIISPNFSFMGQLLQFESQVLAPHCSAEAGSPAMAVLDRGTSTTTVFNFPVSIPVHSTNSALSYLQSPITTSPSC
# PYP1B = target: T2, PYP1B (Homo sapiens, UniProt P18031); assay: Phosphatase inhibition, PYP1B; format: biochemical
# T2 sequence (P18031 1-435): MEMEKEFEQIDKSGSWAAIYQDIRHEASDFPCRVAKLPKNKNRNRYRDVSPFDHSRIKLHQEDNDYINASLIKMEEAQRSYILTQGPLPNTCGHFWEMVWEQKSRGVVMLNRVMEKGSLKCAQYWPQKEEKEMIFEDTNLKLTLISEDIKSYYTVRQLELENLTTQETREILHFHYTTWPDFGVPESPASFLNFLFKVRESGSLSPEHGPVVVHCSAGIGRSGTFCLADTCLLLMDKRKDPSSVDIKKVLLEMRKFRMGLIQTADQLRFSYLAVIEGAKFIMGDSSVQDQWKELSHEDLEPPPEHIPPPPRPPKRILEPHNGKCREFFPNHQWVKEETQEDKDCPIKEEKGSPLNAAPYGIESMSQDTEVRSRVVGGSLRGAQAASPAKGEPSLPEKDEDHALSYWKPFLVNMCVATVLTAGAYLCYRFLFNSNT
# CD45 = target: T3, CD45 (Homo sapiens, UniProt P08575); assay: Phosphatase inhibition, CD45; format: biochemical
# T3 sequence (P08575 26-1306): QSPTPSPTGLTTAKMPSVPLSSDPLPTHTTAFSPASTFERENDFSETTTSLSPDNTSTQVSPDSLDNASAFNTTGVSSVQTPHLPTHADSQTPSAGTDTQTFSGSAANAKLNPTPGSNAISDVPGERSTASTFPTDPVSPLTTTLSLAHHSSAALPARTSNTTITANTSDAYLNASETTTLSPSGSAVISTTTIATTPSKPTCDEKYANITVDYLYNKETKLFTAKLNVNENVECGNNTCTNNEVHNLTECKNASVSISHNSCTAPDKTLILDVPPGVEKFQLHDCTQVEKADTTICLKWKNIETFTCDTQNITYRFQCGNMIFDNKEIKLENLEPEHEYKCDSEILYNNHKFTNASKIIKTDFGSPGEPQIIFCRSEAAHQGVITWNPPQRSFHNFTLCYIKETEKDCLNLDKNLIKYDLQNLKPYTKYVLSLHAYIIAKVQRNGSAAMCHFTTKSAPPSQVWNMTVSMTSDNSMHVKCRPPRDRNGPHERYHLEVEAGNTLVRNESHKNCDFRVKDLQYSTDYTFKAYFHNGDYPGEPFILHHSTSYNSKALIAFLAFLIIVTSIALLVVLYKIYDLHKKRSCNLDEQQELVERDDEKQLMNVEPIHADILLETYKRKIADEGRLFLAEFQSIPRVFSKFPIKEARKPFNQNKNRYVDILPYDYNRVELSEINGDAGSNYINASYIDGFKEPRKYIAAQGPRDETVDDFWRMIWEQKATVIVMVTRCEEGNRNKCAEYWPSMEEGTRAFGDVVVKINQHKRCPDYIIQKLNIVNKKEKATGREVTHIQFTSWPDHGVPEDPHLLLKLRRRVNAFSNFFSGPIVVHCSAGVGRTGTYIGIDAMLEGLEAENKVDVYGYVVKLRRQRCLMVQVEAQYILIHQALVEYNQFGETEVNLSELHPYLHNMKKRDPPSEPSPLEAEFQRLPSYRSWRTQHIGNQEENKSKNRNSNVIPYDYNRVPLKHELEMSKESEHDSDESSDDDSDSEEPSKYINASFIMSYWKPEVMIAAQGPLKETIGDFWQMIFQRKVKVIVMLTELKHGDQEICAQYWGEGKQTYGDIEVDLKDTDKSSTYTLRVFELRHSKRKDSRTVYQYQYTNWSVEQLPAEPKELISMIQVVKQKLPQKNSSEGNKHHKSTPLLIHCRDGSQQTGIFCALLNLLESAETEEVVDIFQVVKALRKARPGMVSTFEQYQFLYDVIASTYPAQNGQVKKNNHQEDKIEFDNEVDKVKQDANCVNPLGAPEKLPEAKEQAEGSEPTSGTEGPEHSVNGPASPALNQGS
# [1] = target: T4, catalytic domain of Cdc25B (Homo sapiens, UniProt P30305); assay: Binding to the catalytic domain of Cdc25B
# T4 sequence (P30305 431-538 limits assumed): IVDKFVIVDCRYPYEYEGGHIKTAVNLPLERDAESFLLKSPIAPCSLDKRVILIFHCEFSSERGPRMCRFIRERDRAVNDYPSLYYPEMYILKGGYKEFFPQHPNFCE
# EGFR and ERK1/2 = assay: Tyrosine phosphorylation of EGFR and ERK1/2; format: cell-based
# cell cycle = assay: Cell cycle analysis; format: cell-based; conditions: with upregulation of tyrosine phosphorylation of Cdk1, 2 and 4
# [2] = system: primary cultures of normal hepatocytes; assay: DNA synthesis in primary cultures of normal hepatocytes versus Hep3B hepatoma cells; format: cell-based
# JM-1 rat hepatoma cells = assay: Orthotopic rat tumor model, JM-1 hepatoma cells seeded into livers of F344 rats; format: in vivo; conditions: 1 mg/kg intraperitoneal, every other day, 5 injections, control rats averaged 11 tumors per liver
# Experimental: JM-1 rat hepatoma cells were seeded into livers of F344 rats. […] The control rats had on the average 11 tumors per liver, whereas the PM-20-treated rats had 2 tumors per rat.
# MCF7 = assay: Tumor cell line growth inhibition, MCF7; format: cell-based; conditions: Homo sapiens, 72 h; Breast, MCF7, cultured for 3 days; maximum concentration 20 μmol/L
# Experimental: as §1
# SKBR3 = assay: Tumor cell line growth inhibition, SKBR3; format: cell-based; conditions: Homo sapiens, SK-BR-3, 72 h; Breast, SKBR3, cultured for 3 days; maximum concentration 20 μmol/L
# Experimental: as §1
# FemX = assay: Tumor cell line growth inhibition, FemX; format: cell-based; conditions: Homo sapiens, Fem-X, 72 h, Skin, cultured for 3 days, maximum concentration 20 μmol/L
# Experimental: as §1
# HR = assay: Tumor cell line growth inhibition, HR; format: cell-based; conditions: Homo sapiens, 72 h, Stomach, cultured for 3 days, maximum concentration 20 μmol/L
# Experimental: as §1
# PCI = assay: Tumor cell line growth inhibition, PCI; format: cell-based; conditions: Homo sapiens, 72 h, Tongue, cultured for 3 days, maximum concentration 20 μmol/L
# Experimental: as §1
# LS180 = assay: Tumor cell line growth inhibition, LS180; format: cell-based; conditions: Homo sapiens, 72 h; Colon, LS180, cultured for 3 days; maximum concentration 20 μmol/L
# Experimental: as §1
# [3] = orally in mice; cited from earlier work
# [4] = Homo sapiens, 72 h, Hep3B cells, 3 days of treatment, read-out: IC50, Hep3B cell growth inhibition
# [5] = Homo sapiens, 72 h, Liver, Hep3B, cultured for 3 days, maximum concentration 20 μmol/L, read-out: IC50
compound,measurement,setting,value
"COc1ccc(N2C(=O)C(SCCO)=C(SCCO)C2=O)cc1 [PM-14, 3,4-bisthiolethanol-1-p-methoxyphenyl maleiimide]",IC50,Hep3B cells; [4],6000 nM
"O=C1C(SCCO)=C(SCCO)C(=O)N1c1ccc(-c2ccccc2)cc1 [PM-20, N-Biphenyl-4-yl-3,4-bis-(2-hydroxy-ethylsulfanyl)-maleimide]",IC50,Hep3B cells; [4],700 nM
same,IC50,Hep3B cells; [5],700 nM
same,Potency at Hep3B cell growth inhibition compared with Cpd5,Hep3B cells,more potent inhibitors than Cpd5
same,IC50,MKP1,75 µM
same,Activity against PYP1B,PYP1B,essentially no activity
same,Activity against CD45,CD45,essentially no activity
same,Binding to the catalytic domain of Cdc25B,[1],binds to the catalytic domain of Cdc25B
same,Inhibition of de-phosphorylation of ERK 1/2,EGFR and ERK1/2,potent inhibitor
same,Tyrosine phosphorylation of EGFR and ERK1/2,EGFR and ERK1/2,appear to induce tyrosine phosphorylation
same,Cell cycle effect,cell cycle,"block, mainly in the G1 phase of cell cycle"
same,"Concentration needed to inhibit DNA synthesis, normal hepatocytes versus Hep3B",[2],10 fold
same,Number of tumors,JM-1 rat hepatoma cells,2 tumors per rat
same,IC50,MCF7,4 µM
same,IC50,SKBR3,6 µM
same,IC50,FemX,2500 nM
same,IC50,HR,6 µM
same,IC50,PCI,2500 nM
same,IC50,LS180,> 20 µM
"CC(=O)Nc1ccc(N2C(=O)C(SCCO)=C(SCCO)C2=O)cc1 [PM-26, N-{4-[3,4-Bis-(2-hydroxy-ethylsulfanyl)-2,5-dioxo-2,5-dihydro-pyrrol-1-yl]-phenyl}-acetamide]",IC50,Hep3B cells; [5],> 20000 nM
same,Inhibition of Hep3B cell growth,Hep3B cells,did not inhibit
same,IC50,MCF7,> 20 µM
same,IC50,SKBR3,> 20 µM
same,IC50,FemX,> 20000 nM
same,IC50,HR,> 20 µM
same,IC50,PCI,> 20000 nM
same,IC50,LS180,> 20 µM
"CCOc1ccc(N2C(=O)C(SCCO)=C(SCCO)C2=O)cc1 [PM-28, 3,4-Bis-(2-hydroxy-ethylsulfanyl)-1-(4-ethoxyphenyl)-pyrrole-2,5-dione]",Potency at Hep3B cell growth inhibition compared with Cpd5,Hep3B cells,more potent inhibitors than Cpd5
"CCCOc1ccc(N2C(=O)C(SCCO)=C(SCCO)C2=O)cc1 [PM-30, 3,4-Bis-(2-hydroxy-ethylsulfanyl)-1-(4-propoxyphenyl)-pyrrole-2,5-dione]",Potency at Hep3B cell growth inhibition compared with Cpd5,Hep3B cells,more potent inhibitors than Cpd5
"O=C1C(SCCO)=C(SCCO)C(=O)N1c1ccc2ccccc2c1 [PM-34, 3,4-Bis-(2-hydroxy-ethylsulfanyl)-1-naphthalen-2-yl-maleimide]",Potency at Hep3B cell growth inhibition compared with Cpd5,Hep3B cells,more potent inhibitors than Cpd5
"O=C1C(SCCO)=C(SCCO)C(=O)N1c1ccc(OCc2ccccc2)cc1 [PM-38, 1-(4-Benzyloxy-phenyl)-3,4-bis-(2-hydroxy-ethylsulfanyl)-pyrrole-2,5-dione]",Inhibition of Hep3B cell growth,Hep3B cells,did not inhibit
"O=C1C(SCCO)=C(SCCO)C(=O)N1c1ccc(-c2ccc([N+](=O)[O-])cc2)cc1 [PM-42, 1-(4′-nitro-biphenyl-4-yl)-3,4-bis-(2-hydroxy-ethylsulfanyl)-pyrrole-2,5-dione]",IC50,Hep3B cells; [4],~100 nM
O=C1C(SCCO)=C(SCCO)C(=O)N1c1ccccc1 [PM-I],IC50,"Hep3B cells; Hep3B cells, 3 days of treatment, read-out: IC50, Hep3B cell growth inhibition",30000 nM
"N#CC(=C(/N)Sc1ccccc1N)/C(C#N)=C(\N)Sc1ccccc1N [U0126, reference compound]",Effect on the growth inhibitory effect of PM-20,"Hep3B cells; MEK1/2 inhibitor given with PM-20, inhibition of ERK1/2 phosphorylation",antagonized the growth inhibitory effect of PM-20
CC1=CC(=O)c2ccccc2C1=O [Vitamin K3],LC50,[3],0.5 g/kg
